From patent US20240408119A1, “DELIVERY OF THERAPEUTIC ALKALOID COMPOUNDS” (priority 2022, published 2024)
Read-outs that look alike come from different tables or passages of the source.

What was measured:
[1] = format: in vitro ADME, human; conditions: 5 μM, 37° C.; for Human Plasma Prodrug (%): prodrug remaining; for Human Plasma Metabolite (%): metabolite (mesembrine) accumulated
Protocol: (§1) Each test was carried out in duplicate for each time point; 0 min, 15 min, 30 min, 60 min, 120, 240 min. […]

[2] = Hydrolysis Assay - Condition 1 (SGF); format: physicochemical; conditions: SGF with pepsin pH 1.5, 37° C., 0.5 mM
Protocol: 50 μL of compound (10 mM) in DMSO was diluted into 950 μL of Simulated Gastric Fluid (SGF) with pepsin (pH 1.5) to a final concentration of 0.5 mM. The hydrolysis kinetics were conducted at 37° C. and measured by LCMS at a certain time interval.
(§2) The corresponding LCMS chromatogram were recorded and the conversions were calculated by integration of each peak.
(§3) • 1) LCMS spectra were obtained using Agilent 1200G1956A or SHIMADZU LCMS-2020. Standard LCMS conditions were as follows (running time 1.55 minutes): • Acidic condition: Mobile Phase A: 0.0375% TFA in water (v/v). Mobile Phase B: 0.01875% TFA in acetonitrile (v/v); Column: Kinetex EVO C18 30*2.1 mm, 5 μm. • Basic condition: Mobile Phase A: 0.025% NH3·H2O in water (v/v). Mobile Phase B: Acetonitrile; Column: Kinetex EVO C18 2.1×30 mm, 5 μm. • 2) Conversion (%)=peak area 1/(peak area 1+peak area 2)*100%, peak area 1 is the integration of hydrolyzed product, peak area 2 is the integration of starting material.

[3] = Hydrolysis Assay - Condition 2 (DI Water); format: physicochemical; conditions: 25° C., 0.5 mM
Protocol: 50 μL of compound (10 mM) in DMSO was diluted into 950 μL of DI water to a final concentration of 0.5 mM. The hydrolysis kinetics were conducted at 25° C. and measured by LCMS at a certain time interval.
as §2, §3

[4] = format: in vitro ADME, mouse; conditions: 5 μM, 37° C.; for Mouse Plasma Prodrug (%): prodrug remaining; for Mouse Plasma Metabolite (%): metabolite (mesembrine) accumulated
Protocol: as §1

[5] = Plasma Stability Assay (Example A3), rat plasma; format: in vitro ADME; conditions: prodrug remaining, 10 μM, 37° C.
Excerpt: (§4) The data is represented in the table below.

[6] = Plasma Stability Assay (Example A3), human plasma; format: in vitro ADME; conditions: prodrug remaining, 10 μM, 37° C.
Excerpt: as §4

COc1ccc([C@@]23CCC(OC(=O)N4CCN(C)CC4)=C[C@@H]2N(C)CC3)cc1OC [Compound 327, [(3aS,7aS)-3a-(3,4-dimethoxyphenyl)-1-methyl-3,4,5,7a-tetrahydro-2H-indol-6-yl]4-methylpiperazine-1-carboxylate]
Human Plasma Prodrug (%) ([1]; 0 min): 100%
Human Plasma Prodrug (%) ([1]; 15 min): >99%
Human Plasma Prodrug (%) ([1]; 30 min): 98.9%
Human Plasma Prodrug (%) ([1]; 60 min): >99%
Human Plasma Prodrug (%) ([1]; 120 min): >99%
Human Plasma Prodrug (%) ([1]; 240 min): 94.4%
Condition 1 Conversion (%) ([2]; 1 min): 0%
Condition 1 Conversion (%) ([2]; 5 min): 0%
Condition 1 Conversion (%) ([2]; 30 min): 0%
Condition 1 Conversion (%) ([2]; 1 h): 0%
Condition 1 Conversion (%) ([2]; 4 h): 0%
Condition 1 Conversion (%) ([2]; 24 h): 0%
Condition 2 Conversion (%) ([3]; 1 min): 0%
Condition 2 Conversion (%) ([3]; 5 min): 0%
Condition 2 Conversion (%) ([3]; 30 min): 0%
Condition 2 Conversion (%) ([3]; 1 h): 0%
Condition 2 Conversion (%) ([3]; 4 h): 0%
Condition 2 Conversion (%) ([3]; 24 h): 0%
Mouse Plasma Prodrug (%) ([4]; 0 min): 100%
Mouse Plasma Prodrug (%) ([4]; 15 min): >99%
Mouse Plasma Prodrug (%) ([4]; 30 min): >99%
Mouse Plasma Prodrug (%) ([4]; 60 min): >99%
Mouse Plasma Prodrug (%) ([4]; 120 min): >99%
Mouse Plasma Prodrug (%) ([4]; 240 min): >99%

COc1ccc([C@@]23CCC(OC(=O)N(C)C)=C[C@@H]2N(C)CC3)cc1OC [Compound 324, [(3aS,7aS)-3a-(3,4-dimethoxyphenyl)-1-methyl-3,4,5,7a-tetrahydro-2H-indol-6-yl] N,N-dimethylcarbamate]
Human Plasma Prodrug (%) ([1]; 0 min): 100.0%
Human Plasma Prodrug (%) ([1]; 15 min): 98.2%
Human Plasma Prodrug (%) ([1]; 30 min): 98.7%
Human Plasma Prodrug (%) ([1]; 60 min): >99%
Human Plasma Prodrug (%) ([1]; 120 min): >99%
Human Plasma Prodrug (%) ([1]; 240 min): 96.5%
Condition 1 Conversion (%) ([2]; 1 min): 0%
Condition 1 Conversion (%) ([2]; 5 min): 0%
Condition 1 Conversion (%) ([2]; 30 min): 0%
Condition 1 Conversion (%) ([2]; 1 h): 0%
Condition 1 Conversion (%) ([2]; 4 h): 0%
Condition 1 Conversion (%) ([2]; 24 h): 0%
Condition 2 Conversion (%) ([3]; 1 min): 0%
Condition 2 Conversion (%) ([3]; 5 min): 0%
Condition 2 Conversion (%) ([3]; 30 min): 0%
Condition 2 Conversion (%) ([3]; 1 h): 0%
Condition 2 Conversion (%) ([3]; 4 h): 0%
Condition 2 Conversion (%) ([3]; 24 h): 0%
Mouse Plasma Prodrug (%) ([4]; 0 min): 100.0%
Mouse Plasma Prodrug (%) ([4]; 15 min): 97.4%
Mouse Plasma Prodrug (%) ([4]; 30 min): 94.4%
Mouse Plasma Prodrug (%) ([4]; 60 min): 94.9%
Mouse Plasma Prodrug (%) ([4]; 120 min): 92.6%
Mouse Plasma Prodrug (%) ([4]; 240 min): 88.9%

CCN(C)C(=O)OC1=C[C@@H]2N(C)CC[C@]2(c2ccc(OC)c(OC)c2)CC1 [Compound 326, [(3aS,7aS)-3a-(3,4-dimethoxyphenyl)-1-methyl-3,4,5,7a-tetrahydro-2H-indol-6-yl] N-ethyl-N-methyl-carbamate]
Human Plasma Prodrug (%) ([1]; 0 min): 100.0%
Human Plasma Prodrug (%) ([1]; 15 min): 98.2%
Human Plasma Prodrug (%) ([1]; 30 min): 99.9%
Human Plasma Prodrug (%) ([1]; 60 min): 98.4%
Human Plasma Prodrug (%) ([1]; 120 min): >99%
Human Plasma Prodrug (%) ([1]; 240 min): 93.9%
Condition 1 Conversion (%) ([2]; 1 min): 0%
Condition 1 Conversion (%) ([2]; 5 min): 0%
Condition 1 Conversion (%) ([2]; 30 min): 0%
Condition 1 Conversion (%) ([2]; 1 h): 0%
Condition 1 Conversion (%) ([2]; 4 h): 0%
Condition 1 Conversion (%) ([2]; 24 h): 0%
Condition 2 Conversion (%) ([3]; 1 min): 0%
Condition 2 Conversion (%) ([3]; 5 min): 0%
Condition 2 Conversion (%) ([3]; 30 min): 0%
Condition 2 Conversion (%) ([3]; 1 h): 0%
Condition 2 Conversion (%) ([3]; 4 h): 0%
Condition 2 Conversion (%) ([3]; 24 h): 0%
Mouse Plasma Prodrug (%) ([4]; 0 min): 100.0%
Mouse Plasma Prodrug (%) ([4]; 15 min): >99%
Mouse Plasma Prodrug (%) ([4]; 30 min): 96.6%
Mouse Plasma Prodrug (%) ([4]; 60 min): >99%
Mouse Plasma Prodrug (%) ([4]; 120 min): >99%
Mouse Plasma Prodrug (%) ([4]; 240 min): 98.5%

COc1ccc([C@@]23CCC(OP(=O)(O)OCOC(=O)OC(C)C)=C[C@@H]2N(C)CC3)cc1OC [Compound 410, [[(3aS,7aS)-3a-(3,4-dimethoxyphenyl)-1-methyl-3,4,5,7a-tetrahydro-2H-indol-6-yl]oxy-hydroxy-phosphoryl]oxymethyl isopropyl carbonate]
Rat Plasma Prodrug (%) ([5]; 0 min): 100.0%
Rat Plasma Prodrug (%) ([5]; 10 min): 63.0%
Rat Plasma Prodrug (%) ([5]; 30 min): 25.4%
Rat Plasma Prodrug (%) ([5]; 60 min): 7.1%
Rat Plasma Prodrug (%) ([5]; 120 min): 0.52%
Rat Plasma Prodrug (%) ([5]; 240 min): 0.01%
Human Plasma Prodrug (%) ([6]; 0 min): 100.0%
Human Plasma Prodrug (%) ([6]; 10 min): 96.3%
Human Plasma Prodrug (%) ([6]; 30 min): 98.8%
Human Plasma Prodrug (%) ([6]; 60 min): 92.7%
Human Plasma Prodrug (%) ([6]; 120 min): 88.2%
Human Plasma Prodrug (%) ([6]; 240 min): 75.5%

COc1ccc([C@@]23CCC(OP(=O)(Oc4ccccc4)Oc4ccccc4)=C[C@@H]2N(C)CC3)cc1OC [Compound 320, [(3aS,7aS)-3a-(3,4-dimethoxyphenyl)-1-methyl-3,4,5,7a-tetrahydro-2H-indol-6-yl]diphenyl phosphate]
Human Plasma Metabolite (%) ([1]; 0 min): 7.6%
Human Plasma Metabolite (%) ([1]; 15 min): 8.0%
Human Plasma Metabolite (%) ([1]; 30 min): 8.5%
Human Plasma Metabolite (%) ([1]; 60 min): 8.6%
Human Plasma Metabolite (%) ([1]; 120 min): 9.4%
Human Plasma Metabolite (%) ([1]; 240 min): 10.4%
Human Plasma Prodrug (%) ([1]; 0 min): 100%
Human Plasma Prodrug (%) ([1]; 15 min): 95.7%
Human Plasma Prodrug (%) ([1]; 30 min): 98.5%
Human Plasma Prodrug (%) ([1]; 60 min): 95.7%
Human Plasma Prodrug (%) ([1]; 120 min): 98.2%
Human Plasma Prodrug (%) ([1]; 240 min): 95.3%
Mouse Plasma Metabolite (%) ([4]; 0 min): 11.8%
Mouse Plasma Metabolite (%) ([4]; 15 min): 15.9%
Mouse Plasma Metabolite (%) ([4]; 30 min): 16.9%
Mouse Plasma Metabolite (%) ([4]; 60 min): 18.6%
Mouse Plasma Metabolite (%) ([4]; 120 min): 19.1%
Mouse Plasma Metabolite (%) ([4]; 240 min): 18.9%
Mouse Plasma Prodrug (%) ([4]; 0 min): 100%
Mouse Plasma Prodrug (%) ([4]; 15 min): 58.5%
Mouse Plasma Prodrug (%) ([4]; 30 min): 46.5%
Mouse Plasma Prodrug (%) ([4]; 60 min): 30.7%
Mouse Plasma Prodrug (%) ([4]; 120 min): 19.4%
Mouse Plasma Prodrug (%) ([4]; 240 min): 11.7%

COc1ccc([C@@]23CCC(OP(=O)(O)O)=C[C@@H]2N(C)CC3)cc1OC [Compound 359, [(3aS,7aS)-3a-(3,4-dimethoxyphenyl)-1-methyl-3,4,5,7a-tetrahydro-2H-indol-6-yl] dihydrogen phosphate]
Human Plasma Metabolite (%) ([1]; 0 min): 0.0%
Human Plasma Metabolite (%) ([1]; 15 min): 0.0%
Human Plasma Metabolite (%) ([1]; 30 min): 0.0%
Human Plasma Metabolite (%) ([1]; 60 min): 0.0%
Human Plasma Metabolite (%) ([1]; 120 min): 15.7%
Human Plasma Metabolite (%) ([1]; 240 min): 23.0%
Human Plasma Prodrug (%) ([1]; 0 min): 100%
Human Plasma Prodrug (%) ([1]; 15 min): 69.0%
Human Plasma Prodrug (%) ([1]; 30 min): 65.1%
Human Plasma Prodrug (%) ([1]; 60 min): 50.4%
Human Plasma Prodrug (%) ([1]; 120 min): 32.8%
Human Plasma Prodrug (%) ([1]; 240 min): 25.6%
Mouse Plasma Metabolite (%) ([4]; 0 min): 0.0%
Mouse Plasma Metabolite (%) ([4]; 15 min): 0.0%
Mouse Plasma Metabolite (%) ([4]; 30 min): 0.0%
Mouse Plasma Metabolite (%) ([4]; 60 min): 0.0%
Mouse Plasma Metabolite (%) ([4]; 120 min): 0.0%
Mouse Plasma Metabolite (%) ([4]; 240 min): 0.0%
Mouse Plasma Prodrug (%) ([4]; 0 min): 100%
Mouse Plasma Prodrug (%) ([4]; 15 min): >99%
Mouse Plasma Prodrug (%) ([4]; 30 min): 82.7%
Mouse Plasma Prodrug (%) ([4]; 60 min): 79.0%
Mouse Plasma Prodrug (%) ([4]; 120 min): 50.7%
Mouse Plasma Prodrug (%) ([4]; 240 min): 59.1%
